Legend:
[1] = system: IκBα phosphorylation by LPS in MEF cells; assay: IκBα phosphorylation after LPS, western blot; type: cell-based, Mouse; conditions: LPS 1.5 μg/ml
Method: SUDHL-6, RAW264.7, and MEF cells were treated with NSC697923 or DMSO (control) for 1 hour before being stimulated with the PMA (100 ng/ml), RANKL (15 ng/ml), and LPS (1.5 μg/ml) for the indicated times. The levels of IκBα phosphorylation in the indicated samples were assessed by western blotting.
HEK293T cells were grown in DMEM supplemented with 10% fetal bovine serum (FBS). Diffuse large B cell lymphoma (DLBCL) cells SUDHL-6, OCI-Ly3, OCI-Ly7, OCLLy10, and HBL-1 were cultured as previously described (Davis et al., “Constitutive Nuclear Factor KappaB Activity is Required for Survival of Activated B Cell-Like Diffuse Large B Cell Lymphoma Cells,” J. Exp. Med. 194:1861-1874 (2001) and Kim et al., “Protein Kinase C-Associated Kinase is Required for NF-kappaB Signaling and Survival in Diffuse Large B-Cell Lymphoma Cells,” Blood 111:1644-1653 (2008), each of which is hereby incorporated by reference in its entirety). RAW264.7 cells were cultured in α-MEM medium supplemented with 10% FBS. Mouse embryo fibroblasts (“MEFs”) were prepared from day 14 embryos as previously described (Kamijo et al., “Tumor Suppression at the Mouse INK4a Locus Mediated by the Alternative Reading Frame Product p19ARF,” Cell 91:649-659 (1997), which is hereby incorporated by reference in its entirety). MEFs with less than four passages were used for the experiments described here. […]

[2] = biological target: T1, Ubc13 (Homo sapiens, UniProt P61088); assay: In vitro Ubc13~Ub thioester conjugate formation; type: biochemical; conditions: E1, Ubc13-Uev1A, ubiquitin, ATP
T1 construct: purchased Boston Biochem Inc E2-600 (Ubc13); E2-662 (Uev1A)
Method: (§1) Purified GST or GST-Ubc13 fusion proteins were incubated with the cell extract prepared from OCI-Ly10 cells with or without the presence of NSC697923 as indicated. The amounts of Uev1A protein associated with GST or GST-Ubc13 were analyzed by western blotting. The first lane was loaded with 8% of the input cell lysate. […] The assay was carried out as described in FIG. 4A, except that the loading buffer for SDS-PAGE gel contains no reducing agent, unless otherwise specified, and the reaction was analyzed by western blotting with a Ubc13-specific antibody. […] The assay was carried out as in FIG. 5B, except that UbcHSc, instead of Ubc13 and Uev1A, was used in the ubiquitination reaction and that a UbcHSc antibody was used for western blot analysis.
For detecting the E2-ubiquitin (Ubc13˜Ub or UbcH5c˜Ub) thioester conjugates, the reactions were carried out as described above without GST-TRAF6. The reactions were terminated with the SDS-sample buffer without a reducing agent unless specified. The products were analyzed by western blotting with an anti-Ubc13 or anti-UbcHSc antibody as indicated.

[3] = biological target: T2, Ubc13-Uev1A complex (Homo sapiens, UniProt P61088); assay: GST pull-down, in vitro interaction between Ubc13 and Uev1A; type: binding; conditions: GST-Ubc13, OCI-Ly10 cell extract
T2 construct: made in house; host or cells: E. coli BL21 (GST-Ubc13); OCI-Ly10 cell lysate (Uev1A)
Method: as §1, with “analysis. […]” for “analysis.”
GST-Ubc13 bound on glutathione-agarose beads was incubated with cell lysates prepared from OCI-Ly10 cells, with or without the presence of NSC697923, at 4° C. for 1 hour. […] The amounts of GST-Ubc13 and Uev1A proteins bound to the beads were then analyzed by western blotting.

T2 sequence (P61088 whole entry): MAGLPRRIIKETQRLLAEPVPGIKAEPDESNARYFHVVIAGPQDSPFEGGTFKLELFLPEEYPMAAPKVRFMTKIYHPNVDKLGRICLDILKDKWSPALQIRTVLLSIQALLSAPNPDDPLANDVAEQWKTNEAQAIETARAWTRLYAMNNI
T2 sequence (Q13404 whole entry partner): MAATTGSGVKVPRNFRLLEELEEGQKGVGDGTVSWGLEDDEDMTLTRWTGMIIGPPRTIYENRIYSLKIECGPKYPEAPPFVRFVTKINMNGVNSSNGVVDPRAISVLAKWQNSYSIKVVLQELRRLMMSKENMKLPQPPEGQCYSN
T1 sequence (P61088 whole entry): as the sequence (P61088 whole entry) above
T1 sequence (Q13404 whole entry partner): as the sequence (Q13404 whole entry partner) above

## Cc1ccc(S(=O)(=O)c2ccc([N+](=O)[O-])o2)cc1 [NSC697923, 2-nitro-5-tosylfuran]
[1]
  IκBα phosphorylation by LPS: inhibited
[2]
  formation of Ubc13~Ub thioester conjugate: inhibited formation of this thioester conjugate
[3]
  complex formation between Ubc13 and Uev1A: no inhibitory effect
